# Reference: publication PMC8522775, “Population Pharmacokinetics of Rezafungin in Patients with Fungal Infections” (Antimicrobial Agents and Chemotherapy, 2021)
# Read-outs that look alike come from different tables or passages of the source. Numbered stars: 1 amine (or outer) side, 2 acyl side, 3 side chain; on linkers, the order of the positions; unused ones are H or OH. Bridge positions count the residues as written; N and C are the ends. Square brackets hold non-standard residues; d marks the D form. Peptide text beside a SMILES is read from it. * marks the point of attachment. Orn(4R-OH,5R-OCH2CH2NMe3+) = C[N+](C)(C)CCO[C@@H](N[*:3])[C@H](O)C[C@H](N[*:1])C(=O)[*:2]; pTerphenylCO(4''-OnC5H11) = CCCCCOc1ccc(-c2ccc(-c3ccc(C(=O)*)cc3)cc2)cc1; hTyr(3S-OH,4S-OH) = N[C@H](C(=O)O)[C@H](O)[C@@H](O)c1ccc(O)cc1; Pro(3S-OH,4S-Me) = C[C@H]1CN[C@H](C(=O)O)[C@H]1O; Hyp = O=C(O)[C@@H]1C[C@@H](O)CN1
# Legend:
# [1] = Post hoc rezafungin exposure and PK parameter estimates for patients of the STRIVE trial; assay type: in vivo, human; conditions: n = 68, plasma; for AUC0–168 / Cmax / Cmin: after first dose and prior to the second dose; for AUC0–168: from individual post hoc parameters; for Cmax: highest predicted concentration; for Cmin: lowest predicted concentration; for clearance / Vd: human, iv; for clearance: individual post hoc estimates from final model; for Vd: volume of distribution at steady state, individual post hoc estimates, read-out: Vss
# Protocol: (§1) The phase 2 study (NCT02734862, also known as the STRIVE trial) was a multicenter, randomized, double-blind study designed to assess the safety and efficacy of rezafungin, compared to that of caspofungin followed by optional oral fluconazole step-down, in the treatment of patients with candidemia and/or invasive candidiasis. Treatment groups included two dose regimens of rezafungin IV once weekly (400 mg IV or 400 mg IV on week 1 followed by 200 mg on subsequent weeks) or caspofungin IV once daily. Additional doses after day 14 were allowed based on criteria defined in the study protocol. Blood samples for determination of rezafungin plasma concentrations were obtained within 10 min before the end of infusion and either at 4 and 8 h on day 1 (as specified in the original protocol) or from 15 min to 1 h after the end of infusion and 2 to 12 h after the end of infusion on day 1 (as modified by protocol amendment, designed to better inform the population PK model). Additional samples were obtained with random clinical blood draws on day 2 and day 4, as well as prior to the dose on day 8 and day 15 (or day 14 if no day 15 dose was administered).
# All blood samples were assayed for plasma rezafungin concentration using a liquid chromatography coupled to tandem mass spectrometry (LC/MS/MS) method that has been described previously ([11], [12]). In brief, the calibration range for the assay was 10.0 ng/ml to 10,000 ng/ml, and interassay accuracy and precision were excellent (accuracy ranged from 0.3 to 4.3%, and precision ranged from 2.7 to 5.0%). The same assay was used for all four studies.
# Patient-specific estimates of rezafungin exposure (AUC from zero to tau [AUC0−τ], maximum concentration of drug [Cmax], and minimum concentration of drug [Cmin]) were derived using individual post hoc PK parameter estimates obtained from the final model. The PK parameters and the mrgsolve package in R ([22]) were then used to simulate predicted plasma rezafungin concentration-time data for each subject for the duration of time between the first and second doses. Cmax and Cmin were defined as the highest and lowest predicted concentrations over that first dosing interval, respectively, while AUC0-τ was calculated via numerical integration of the concentration-time profile. Summary statistics for the rezafungin exposures and key PK parameters (i.e., CL and volume of distribution at steady state [Vss]) were calculated for the patients from the STRIVE trial.
# [2] = with normal serum albumin, cited from earlier work
# From the text: Consistent with the previous population PK model, which had relationships between body weight and all PK parameters ([12]), body size in the form of BSA was predictive of the variability in Vc, Vp1, and Vp2. However, body size was not a significant predictor of the variability in rezafungin CL in this population. One possible explanation for the lack of a body size relationship for CL is the fact that sex is predictive of the IIV in CL but none of the vo ...
# [3] = Population PK model of rezafungin in plasma, pooled phase 1 and phase 2 data; assay type: in vivo, human
# From the text: Data were pooled from three phase 1 studies (NCT02516904, NCT02551549, and CD101.IV.1.06) and one phase 2 study (NCT02734862). The protocols and informed consent were reviewed and approved by an appropriate institutional review board before subject enrollment. The studies were designed and monitored in compliance with the ethical principles of good clinical practice and in accordance with the Declaration of Helsinki.
# The first phase 1 study (NCT2516904) was a single ascending dose (SAD) study in which subjects received a single rezafungin dose of 50, 100, 200, or 400 mg or matching placebo administered as a 60-min IV infusion. A total of 32 subjects were enrolled and randomized evenly to each of the four dosing cohorts (6 active and 2 placebo in each cohort). Blood samples for determination of rezafungin plasma concentrations were obtained prior to the dose and at 0.25, 0.5, 1, 1.5, 2, 4, 6, 8, 12, 24, 48, and 120 h after the start of infusion and on days 7, 14 (±1 day), and 21 (±1 day). The second phase 1 study (NCT02551549) was a multiple ascending dose (MAD) study. A total of 24 subjects were enrolled and randomized evenly to one of three cohorts. In cohorts 1 and 2, subjects received 100 or 200 mg of rezafungin (or matching placebo in a 3:1 ratio in each cohort), respectively, as 60-min IV infusions on days 1 and 8. In cohort 3, subjects received 400 mg (or matching placebo in a 3:1 ratio), respectively, as 60-min IV infusions on days 1, 8, and 15. Blood samples were collected predose and at 0.5, 1, 1.5, 2, 4, 6, 8, 12, 24, 48, and 120 h after the start of each infusion and on days 7, 14 (±1 day), 21 (±1 day), and 35 (±1 day, cohort 3 only). The third phase 1 study (CD101.IV.1.06) was designed to assess the impact of single, ascending doses of rezafungin on QTcF interval in healthy subjects. Subjects were randomized to receive either rezafungin (600 or 1,400 mg IV at a rate of 400 mg/h, n = 12 per dose group), moxifloxacin (400 mg IV, n = 24), or placebo. Only data from subjects randomized to rezafungin were included in the population PK analysis data set. Blood samples for determination of rezafungin plasma concentrations were obtained prior to the dose and at 1.5, 2.5, 3.5, 5, 6, 8, 12, 24, 48, 96, and 168 h after the start of the infusion.
# as §1
# All blood samples were assayed for plasma rezafungin concentration using a liquid chromatography coupled to tandem mass spectrometry (LC/MS/MS) method that has been described previously ([11], [12]). In brief, the calibration range for the assay was 10.0 ng/ml to 10,000 ng/ml, and interassay accuracy and precision were excellent (accuracy ranged from 0.3 to 4.3%, and precision ranged from 2.7 to 5.0%). The same assay was used for all four studies. […]
# [4] = STRIVE patients, median (range)
# [5] = final population PK model, covariate effect: (BSA/1.83)^power
structure (smiles),measurement,setting,value
"CCCCCOc1ccc(-c2ccc(-c3ccc(C(=O)N[C@H]4C[C@@H](O)[C@@H](OCC[N+](C)(C)C)NC(=O)[C@@H]5[C@@H](O)[C@@H](C)CN5C(=O)[C@H]([C@@H](C)O)NC(=O)[C@H]([C@H](O)[C@@H](O)c5ccc(O)cc5)NC(=O)[C@@H]5C[C@@H](O)CN5C(=O)[C@H]([C@@H](C)O)NC4=O)cc3)cc2)cc1 [rezafungin] ({pTerphenylCO(4''-OnC5H11)}-[Orn(4R-OH,5R-OCH2CH2NMe3+)]T[Hyp][hTyr(3S-OH,4S-OH)]T[Pro(3S-OH,4S-Me)]; lactam 1-C)",AUC0–168,[1]; [4],"673 (372–1,210) mg·h/liter"
same,Cmax,"[1]; STRIVE patients, mean (SD), SD",16.4 (4.38) mg/liter
same,Cmax,[1]; [4],16.4 (7.10–26.0) mg/liter
same,Cmin,"[1]; STRIVE patients, mean (SD), SD",2.07 (0.659) mg/liter
same,Cmin,[1]; [4],1.90 (1.04–3.83) mg/liter
same,clearance,"[1]; STRIVE patients, mean (SD), SD",6.08 mL/min
same,clearance,[1]; [4],5.75 mL/min
same,Vd,"[1]; STRIVE patients, mean (SD), SD",61 L
same,Vd,[1]; [4],52.7 L
same,AUC0–168,"[1]; patients with candidemia and/or invasive candidiasis, STRIVE trial, 400 mg IV week 1, mean (SD), SD",709 (184) mg·h/liter
same,protein binding,[2]; humans,97.4%
same,protein binding,[2]; rats,99.2%
same,"Vc, proportional change in infected patients","[3]; final population PK model, covariate effect of infection status on Vc",0.478
same,"Vp2, proportional change in infected patients","[3]; final population PK model, covariate effect of infection status on Vp2",1.69
same,Vp1-BSA power,[3]; [5],1.14
same,Vp2-BSA power,[3]; [5],2.47
same,Vp1-albumin power,"[3]; final population PK model, covariate effect: (albumin/4.2)^power",−0.829
same,Vc-BSA slope,"[3]; final population PK model, covariate effect: Vc + slope x (BSA - 1.83)",7.54
same,"CLd1, population mean final estimate","[3]; final population PK model, distributional clearance to peripheral compartment 1",18.2 L/h
same,"CLd2, population mean final estimate","[3]; final population PK model, distributional clearance, peripheral compartment 2",0.541 L/h
same,"CLd3, population mean final estimate","[3]; final population PK model, distributional clearance, peripheral compartment 3",0.0743 L/h
same,"Vp1, population mean final estimate","[3]; final population PK model, volume of distribution for peripheral compartment 1, albumin 4.2, BSA 1.83",14.6 L
same,"Vp2, population mean final estimate","[3]; final population PK model, volume of distribution for peripheral compartment 2, BSA 1.83, not infected",6.69 L
same,"Vc, population mean final estimate","[3]; final population PK model, volume of distribution for the central compartment, BSA 1.83, not infected",11.1 L
same,"Vp3, population mean final estimate","[3]; final population PK model, volume of peripheral compartment 3",13.6 L
same,clearance,"[3]; human, final linear four-compartment population PK model, zero-order IV input, pooled healthy volunteers (phase 1) and infected patients (phase 2), 135 subjects, 50 to 1,400 mg IV, plasma LC/MS/MS, NONMEM FOCE-I, albumin 4.2, read-out: CL, population mean final estimate (converted)",4.23 mL/min
